# Assay results taken from US20030105124A1, “Substituted benzolactam compounds” (priority 2000, published 2003).
# Molecular target: T1, substance P receptor sites in IM-9 cells (Homo sapiens, UniProt P25103)
# T1 construct: endogenous in cells; host or cells: IM-9 cells (human)
# Assay: IM-9 binding assay (inhibition of [3H]SP binding)
# Details: human IM-9 cells, 0.56 nM [^3H]SP, 120 min at 4° C.
# Description: The activity of the compounds of the present invention, as substance P antagonists, is determined by their ability to inhibit the binding of substance P at its receptor sites in IM-9 cells employing radioactive ligands. The substance P antagonist activity of the herein described compounds is evaluated by using the standard assay procedure described by D. G. Payan et al., as reported in J. Immunolocy, 133, 3260 (1984). This method essentially involves determining the concentration of the individual compound required to reduce by 50% the amount of radiolabeled substance P ligands at their receptor sites in said isolated cow tissues or IM-9 cells, thereby affording characteristic IC50 values for each compound tested. More specifically, inhibition of [^3H]SP binding to human IM-9 cells by compounds are determined in assay buffer (50 mM Tris-HCl (pH 7.4), 1 mM MnCl2, 0.02% bovine serum albumin, bacitracin (40 μg/ml), leupeptin (4 μg/ml), chymostatin (2 μg/ml) and phosphoramidon (30 μg/ml)). The reaction is initiated by the addition of cells to assay buffer containing 0.56 nM [^3H]SP and various concentrations of compounds (total volume; 0.5 ml) and allowed to incubate for 120 min at 4° C. […] Nonspecific binding is defined as the radioactivity remaining in the presence of 1 μM SP. The filters are placed into tubes and counted using liquid scintillation counter.
# T1 sequence (P25103 whole entry): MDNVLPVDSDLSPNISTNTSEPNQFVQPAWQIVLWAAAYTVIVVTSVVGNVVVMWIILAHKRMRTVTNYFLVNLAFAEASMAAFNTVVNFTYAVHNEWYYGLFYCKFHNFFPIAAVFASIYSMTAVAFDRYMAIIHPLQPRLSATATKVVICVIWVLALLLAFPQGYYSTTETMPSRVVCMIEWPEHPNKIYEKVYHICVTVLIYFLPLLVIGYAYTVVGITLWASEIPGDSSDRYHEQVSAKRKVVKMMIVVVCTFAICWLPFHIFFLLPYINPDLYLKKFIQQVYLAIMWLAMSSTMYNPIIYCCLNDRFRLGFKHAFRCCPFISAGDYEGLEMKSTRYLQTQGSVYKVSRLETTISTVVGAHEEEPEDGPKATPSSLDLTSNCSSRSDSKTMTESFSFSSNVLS
row,Compound,IC50 [nM]
1,"COc1cc2c(cc1CN[C@H]1CCCN[C@H]1c1ccccc1)N(C)C(=O)CC2.Cl.Cl [Compound 21, (2S,3S)-3-(6-Methoxy-1-methyl-2-oxo-1,2,3,4-tetrahydroquinolin-7-yl)methylamino-2-phenylpiperidine Dihydrochloride]",< 0.1

# Molecular target: T2, Ca^2+ channel (Rattus norvegicus, UniProt P22002)
# T2 construct: from tissue; host or cells: rat heart membrane preparation
# T2 sequence (P22002 whole entry, other chains not shown): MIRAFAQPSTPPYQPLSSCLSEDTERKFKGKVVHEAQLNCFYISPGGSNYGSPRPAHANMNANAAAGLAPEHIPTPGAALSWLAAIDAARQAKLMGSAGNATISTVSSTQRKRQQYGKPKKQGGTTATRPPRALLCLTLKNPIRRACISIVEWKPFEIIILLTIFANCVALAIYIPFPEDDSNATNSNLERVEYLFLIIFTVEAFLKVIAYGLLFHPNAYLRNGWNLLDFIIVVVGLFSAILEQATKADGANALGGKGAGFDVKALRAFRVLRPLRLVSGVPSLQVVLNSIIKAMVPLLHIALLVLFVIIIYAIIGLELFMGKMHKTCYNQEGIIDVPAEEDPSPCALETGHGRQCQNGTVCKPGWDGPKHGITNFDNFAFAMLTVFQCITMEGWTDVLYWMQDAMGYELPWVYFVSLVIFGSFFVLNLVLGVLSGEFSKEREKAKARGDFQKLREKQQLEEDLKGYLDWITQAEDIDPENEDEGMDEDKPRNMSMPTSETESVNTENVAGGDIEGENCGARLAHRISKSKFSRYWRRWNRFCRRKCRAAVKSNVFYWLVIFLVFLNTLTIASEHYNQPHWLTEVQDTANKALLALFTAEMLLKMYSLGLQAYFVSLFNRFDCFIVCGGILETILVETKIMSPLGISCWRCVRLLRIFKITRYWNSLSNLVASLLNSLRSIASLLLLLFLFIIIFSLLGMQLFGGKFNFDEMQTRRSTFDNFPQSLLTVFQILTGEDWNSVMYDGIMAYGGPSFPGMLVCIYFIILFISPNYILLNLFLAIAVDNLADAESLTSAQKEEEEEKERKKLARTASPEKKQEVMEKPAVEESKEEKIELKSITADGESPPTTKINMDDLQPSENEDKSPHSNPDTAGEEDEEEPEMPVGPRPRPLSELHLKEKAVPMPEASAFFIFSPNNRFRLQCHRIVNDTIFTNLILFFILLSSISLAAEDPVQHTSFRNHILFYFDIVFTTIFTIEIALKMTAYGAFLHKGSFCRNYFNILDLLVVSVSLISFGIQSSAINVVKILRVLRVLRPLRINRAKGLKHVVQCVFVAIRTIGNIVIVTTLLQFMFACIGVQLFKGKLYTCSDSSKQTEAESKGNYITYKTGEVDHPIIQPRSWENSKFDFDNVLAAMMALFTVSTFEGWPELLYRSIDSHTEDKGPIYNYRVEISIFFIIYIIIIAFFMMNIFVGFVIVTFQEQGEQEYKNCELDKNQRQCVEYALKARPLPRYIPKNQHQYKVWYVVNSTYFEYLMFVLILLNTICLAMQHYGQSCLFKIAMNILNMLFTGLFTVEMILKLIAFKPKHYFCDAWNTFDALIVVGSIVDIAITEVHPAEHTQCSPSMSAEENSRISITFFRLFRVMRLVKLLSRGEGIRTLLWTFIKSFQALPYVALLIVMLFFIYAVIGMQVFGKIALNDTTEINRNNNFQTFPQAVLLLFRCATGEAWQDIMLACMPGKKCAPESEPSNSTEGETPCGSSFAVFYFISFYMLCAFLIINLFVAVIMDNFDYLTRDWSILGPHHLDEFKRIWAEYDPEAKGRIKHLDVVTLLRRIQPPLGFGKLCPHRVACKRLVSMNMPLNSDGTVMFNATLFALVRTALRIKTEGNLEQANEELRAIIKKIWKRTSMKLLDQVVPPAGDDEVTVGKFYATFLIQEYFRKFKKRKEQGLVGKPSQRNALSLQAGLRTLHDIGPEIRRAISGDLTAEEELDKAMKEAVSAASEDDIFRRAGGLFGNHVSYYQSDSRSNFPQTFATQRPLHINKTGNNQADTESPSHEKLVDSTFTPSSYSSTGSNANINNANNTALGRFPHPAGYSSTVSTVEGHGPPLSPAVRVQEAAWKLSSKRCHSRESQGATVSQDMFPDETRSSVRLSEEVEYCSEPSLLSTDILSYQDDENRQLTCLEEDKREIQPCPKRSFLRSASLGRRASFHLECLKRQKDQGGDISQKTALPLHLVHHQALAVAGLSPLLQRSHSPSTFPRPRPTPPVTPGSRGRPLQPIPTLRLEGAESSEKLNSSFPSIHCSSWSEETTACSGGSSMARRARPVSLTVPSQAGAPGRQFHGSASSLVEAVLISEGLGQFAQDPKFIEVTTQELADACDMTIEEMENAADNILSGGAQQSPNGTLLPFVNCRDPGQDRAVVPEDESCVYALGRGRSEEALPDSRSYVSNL
# T2 sequence (P54290 25-944 partner limits assumed, other chains not shown): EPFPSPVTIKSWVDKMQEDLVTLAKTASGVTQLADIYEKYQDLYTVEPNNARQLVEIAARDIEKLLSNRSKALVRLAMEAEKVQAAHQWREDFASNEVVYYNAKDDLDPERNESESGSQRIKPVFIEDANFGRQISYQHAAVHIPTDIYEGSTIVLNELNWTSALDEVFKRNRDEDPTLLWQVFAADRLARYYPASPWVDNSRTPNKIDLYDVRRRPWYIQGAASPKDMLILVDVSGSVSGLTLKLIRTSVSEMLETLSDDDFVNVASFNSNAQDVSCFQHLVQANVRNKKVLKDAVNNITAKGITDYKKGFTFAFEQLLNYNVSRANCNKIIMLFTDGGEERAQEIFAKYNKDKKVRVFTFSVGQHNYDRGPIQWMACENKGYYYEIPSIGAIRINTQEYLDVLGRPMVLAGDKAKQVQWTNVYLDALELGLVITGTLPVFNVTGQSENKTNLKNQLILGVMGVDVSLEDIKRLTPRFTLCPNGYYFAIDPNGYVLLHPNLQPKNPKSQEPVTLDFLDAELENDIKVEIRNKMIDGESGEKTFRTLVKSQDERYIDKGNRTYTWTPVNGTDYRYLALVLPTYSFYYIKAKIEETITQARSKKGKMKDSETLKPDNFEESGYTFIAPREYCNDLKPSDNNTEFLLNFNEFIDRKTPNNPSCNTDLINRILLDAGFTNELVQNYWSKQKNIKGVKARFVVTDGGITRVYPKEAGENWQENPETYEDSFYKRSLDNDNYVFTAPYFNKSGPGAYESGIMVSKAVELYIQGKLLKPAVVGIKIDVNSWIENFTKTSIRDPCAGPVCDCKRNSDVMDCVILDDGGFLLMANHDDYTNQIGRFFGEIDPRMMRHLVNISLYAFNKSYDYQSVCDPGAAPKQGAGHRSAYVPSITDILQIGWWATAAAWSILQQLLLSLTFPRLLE
# T2 sequence (P54290 945-1091 partner limits assumed, other chains not shown): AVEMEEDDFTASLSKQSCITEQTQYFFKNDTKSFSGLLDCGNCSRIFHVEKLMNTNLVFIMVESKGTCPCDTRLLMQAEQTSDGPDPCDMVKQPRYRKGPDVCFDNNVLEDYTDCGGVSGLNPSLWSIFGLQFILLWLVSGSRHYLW
# Assay: verapamil binding study in rat heart membrane preparation
# Details: 0.25 nM [^3H]desmethoxyverapamil, read-out: verapamil binding study (Ca^2+ channel binding affinity, adverse effect)
# Description: The adverse effect on Ca^2+ channel binding affinity is determined by verapamil binding study in rat heart membrane preparation. More specifically, verapamil binding study is performed as previously described by Reynolds et al., (J. Pharmacol. Exp. Ther., 237, 731, (1986)). Briefly, incubations are initiated by the addition of tissue to tubes containing 0.25 nM [^3H]desmethoxyverapamil and various concentrations of compounds (total volume; 1 ml). Nonspecific binding is defined as radioligand binding remaining in the presence of 3-10 μM methoxyverapamil.
row,Compound,IC50 [nM]
1,"COc1cc2c(cc1CN[C@H]1CCCN[C@H]1c1ccccc1)N(C)C(=O)CC2.Cl.Cl [Compound 21, (2S,3S)-3-(6-Methoxy-1-methyl-2-oxo-1,2,3,4-tetrahydroquinolin-7-yl)methylamino-2-phenylpiperidine Dihydrochloride]",> 300

# Tested on: gerbils
# Assay: tapping test in gerbils
# Assay type: in vivo, gerbil
# Details: % inhibition at 0.3 mg/kg scoring
# Description: More specifically, gerbils are lightly anesthetized with ether and the skull surface is exposed. […] Following injection, gerbils are placed in 1 L beaker individually and monitored for repetitive hind paw tapping. Some compounds prepared in the following Examples were tested in accordance with these testing methods.
row,Compound,"[Sar^9, Met(O2)^11]substance P-induced tapping test, % inhibition [%]"
1,"COc1cc2c(cc1CN[C@H]1CCCN[C@H]1c1ccccc1)N(C)C(=O)CC2.Cl.Cl [Compound 21, (2S,3S)-3-(6-Methoxy-1-methyl-2-oxo-1,2,3,4-tetrahydroquinolin-7-yl)methylamino-2-phenylpiperidine Dihydrochloride]",52

# Tested on: not given
# Assay: not given
# Details: not given
row,Compound,melting point [°C]
1,COc1cc2c(cc1CN[C@H]1C3CCN(CC3)[C@H]1C(c1ccccc1)c1ccccc1)N(C)C(=O)CC2,136 to 139
2,COc1cc2ccc(=O)n(C)c2cc1CN[C@H]1C2CCN(CC2)[C@H]1C(c1ccccc1)c1ccccc1,125 to 128
3,COc1cc2ccc(=O)n(C)c2cc1CN[C@H]1CCCN[C@H]1c1ccccc1.Cl.Cl,260 to 263
4,COc1cc2c(cc1CN[C@H]1CCCN[C@H]1c1ccccc1)N(C(C)C)C(=O)CC2.Cl.Cl,257 to 260
5,CN1C(=O)CCc2cc(OC(F)F)c(CN[C@H]3CCCN[C@H]3c3ccccc3)cc21.Cl.Cl,238 to 240
6,COc1cc2c(cc1CN[C@H]1CCCN[C@H]1c1ccccc1)N(CC(F)(F)F)C(=O)CC2.Cl.Cl,243 to 245
7,COc1cc2c(cc1CN[C@H]1CCCN[C@H]1c1ccccc1)N(C)C(=S)CC2.Cl.Cl,245 to 246
8,COc1cc2c(cc1CN[C@H]1CCCN[C@H]1c1ccccc1)N(C)C(=O)CCC2.Cl.Cl,236 to 238
9,COc1cc2c(cc1CN[C@H]1CCCN[C@H]1c1ccccc1)CCC(=O)N2C.Cl.Cl,243 to 244
10,COc1cc2c(cc1CN[C@H]1CCCN[C@H]1c1ccccc1)C(C(F)(F)F)CC(=O)N2C.Cl.Cl (stereo partly drawn),255 to 256
11,COc1cc2c(cc1CN[C@H]1CCCN[C@H]1c1ccccc1)N(C)C(=O)OC2.Cl.Cl,235 to 237
12,COc1cc2c(cc1CN[C@H]1CCCN[C@H]1c1ccccc1)N(C)C(=O)SC2.Cl.Cl,252 to 254
13,COc1cc2c(cc1CN[C@H]1CCCN[C@H]1c1ccccc1)C(C)(C)C(=S)N2C.Cl.Cl,234 to 236
14,COc1cc2c(cc1CN[C@H]1CCCN[C@H]1c1ccccc1)CCC(=S)N2C.Cl.Cl,219 to 221
15,"COc1cc2c(cc1CN[C@H]1CCCN[C@H]1c1ccccc1)N(C)C(=O)CC2.Cl.Cl [Compound 21, (2S,3S)-3-(6-Methoxy-1-methyl-2-oxo-1,2,3,4-tetrahydroquinolin-7-yl)methylamino-2-phenylpiperidine Dihydrochloride]",265 to 268
